Experimental data reported in ChEMBL document CHEMBL1201862, “PubChem BioAssay data set” (2004).
The source made the active and inactive calls.

Tests used:
[1] = molecular target: FAD-linked sulfhydryl oxidase ALR (Homo sapiens, UniProt P55789); test: ALR-catalysed DTT oxidation blockers – biochemical, H2O2 detection, luminescence, cherry-pick, dose response (AID 493248)
[2] = molecular target: Glucose-6-phosphate 1-dehydrogenase (Homo sapiens, UniProt P11413); test: inhibition of Homo sapiens G6PD, dose series – biochemical, fluorescence, selectivity assay for P. falciparum G6PD inhibitor project, dose response (AID 504792); assay type: functional
[3] = viability loss of HMLE_sh_eGFP cells – cell-based, luminescence, counter-screen for HMLE_sh_ECad selective toxicity project, dose response (AID 463074); assay type: functional, Homo sapiens;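 further: HMLE human mammary epithelial cells expressing control shRNA against eGFP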
[4] = Luminescence Cell-Based Dose Retest to Confirm Inhibitors of Cancer Stem Cells. [Related pubchem assays (depositor defined):AID2717, AID2721]; assay type: functional; conditions: Homo sapiens
[5] = molecular target: T1, Heat shock factor protein 1 (Mus musculus, UniProt P38532); test: decrease of HSF1-responsive luciferase luminescence – cell-based, NIH3T3, dose retest, confirmation (AID 2382); assay type: functional;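 further: NIH3T3 fibroblasts with HSF1-driven luciferase reporter stressed by proteasome inhibitor MG132; luminescence from HSF1-driven luciferase expression after 8 hours of MG132 stress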
T1 sequence (P38532 whole entry): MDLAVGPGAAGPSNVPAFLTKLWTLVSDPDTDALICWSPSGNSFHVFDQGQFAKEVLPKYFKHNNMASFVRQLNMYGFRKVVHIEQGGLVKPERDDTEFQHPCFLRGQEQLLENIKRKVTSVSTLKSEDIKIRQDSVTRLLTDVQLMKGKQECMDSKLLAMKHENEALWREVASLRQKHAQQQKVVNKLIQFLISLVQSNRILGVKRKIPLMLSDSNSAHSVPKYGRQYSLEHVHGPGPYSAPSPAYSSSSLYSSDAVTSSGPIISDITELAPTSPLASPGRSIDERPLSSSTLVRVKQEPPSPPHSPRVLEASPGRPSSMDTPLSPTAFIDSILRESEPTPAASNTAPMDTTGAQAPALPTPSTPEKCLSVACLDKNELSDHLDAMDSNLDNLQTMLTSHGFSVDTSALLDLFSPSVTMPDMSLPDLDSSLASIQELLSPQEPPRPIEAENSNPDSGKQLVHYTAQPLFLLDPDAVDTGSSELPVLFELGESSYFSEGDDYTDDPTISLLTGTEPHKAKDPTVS

[6] = molecular target: Peroxisome proliferator-activated receptor gamma/Nuclear receptor coactivator 1 (Homo sapiens, UniProt P37231); test: (§1) TR-FRET dose response biochemical High Throughput Screening assay for agonists of the steroid receptor coactivator 1 (SRC-1) recruitment by the peroxisome proliferator-activated receptor gamma (PPAR gamma): non-selective agonists. [Related pubchem assays (depositor defined):AID1300, AID1808, AID504735, AID631]; assay type: protein assay
[7] = molecular target: Peroxisome proliferator-activated receptor gamma/Nuclear receptor coactivator 3 (Homo sapiens, UniProt P37231); test: as §1, with “3 (SRC-3)” for “1 (SRC-1)”, “assays: 1301 (Confirmation screen.), 1048 (Primary screen.)]” for “assays (depositor defined):AID1300, AID1808, AID504735, AID631]”; assay type: functional
[8] = molecular target: Peroxisome proliferator-activated receptor gamma/Nuclear receptor coactivator 2 (Homo sapiens, UniProt P37231); test: TR-FRET dose response biochemical High Throughput Screening assay for agonists of the steroid receptor coactivator 2 (SRC-2) recruitment by the peroxisome proliferator-activated receptor gamma (PPAR gamma): non-selective agonists. [Related pubchem assays: 1297, 1032 ]; assay type: functional
[9] = tested on: HEK293; test: cells; conditions: Homo sapiens
[10] = tested on: HEK293; test: cells; conditions: Homo sapiens; remark: listed apart in the source
[11] = molecular target: T2, Replicative DNA helicase DnaB (Mycobacterium tuberculosis, UniProt P9WMR3); test: DnaB intein splicing inhibitors, dose response, biochemical, cell-free fluorescence (AID 449749); assay type: functional
T2 sequence (P9WMR3 whole entry): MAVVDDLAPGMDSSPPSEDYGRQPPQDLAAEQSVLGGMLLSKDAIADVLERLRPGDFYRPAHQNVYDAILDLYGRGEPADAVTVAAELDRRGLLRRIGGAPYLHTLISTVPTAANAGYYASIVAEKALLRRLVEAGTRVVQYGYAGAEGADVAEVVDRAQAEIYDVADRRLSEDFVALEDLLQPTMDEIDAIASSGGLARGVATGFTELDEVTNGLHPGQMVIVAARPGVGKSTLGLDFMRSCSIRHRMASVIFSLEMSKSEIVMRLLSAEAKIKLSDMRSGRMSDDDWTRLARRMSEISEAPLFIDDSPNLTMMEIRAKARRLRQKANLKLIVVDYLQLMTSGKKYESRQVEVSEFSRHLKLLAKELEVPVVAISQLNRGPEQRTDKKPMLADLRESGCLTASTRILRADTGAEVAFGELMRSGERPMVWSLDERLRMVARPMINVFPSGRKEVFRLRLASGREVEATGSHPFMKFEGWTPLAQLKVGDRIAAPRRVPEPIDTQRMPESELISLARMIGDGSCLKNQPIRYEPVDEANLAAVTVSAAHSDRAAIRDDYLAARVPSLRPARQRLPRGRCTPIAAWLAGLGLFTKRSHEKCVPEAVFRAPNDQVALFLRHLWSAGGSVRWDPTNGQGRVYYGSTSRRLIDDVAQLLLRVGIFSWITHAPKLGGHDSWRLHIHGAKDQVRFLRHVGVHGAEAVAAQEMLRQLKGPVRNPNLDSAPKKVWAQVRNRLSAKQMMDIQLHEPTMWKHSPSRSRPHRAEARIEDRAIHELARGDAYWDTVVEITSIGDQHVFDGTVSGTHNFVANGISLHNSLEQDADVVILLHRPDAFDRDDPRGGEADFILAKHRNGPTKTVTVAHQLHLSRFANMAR

[12] = molecular target: T3, Protein RecA (Mycobacterium tuberculosis, UniProt P9WHJ3); test: Fluorescence Cell-Free Homogeneous Dose Retest to Identify Inhibitors of RecA-Intein Splicing Activity. [Related pubchem assays (depositor defined):AID2097, AID2223, AID489010, AID492950]; assay type: functional
T3 sequence (P9WHJ3 whole entry): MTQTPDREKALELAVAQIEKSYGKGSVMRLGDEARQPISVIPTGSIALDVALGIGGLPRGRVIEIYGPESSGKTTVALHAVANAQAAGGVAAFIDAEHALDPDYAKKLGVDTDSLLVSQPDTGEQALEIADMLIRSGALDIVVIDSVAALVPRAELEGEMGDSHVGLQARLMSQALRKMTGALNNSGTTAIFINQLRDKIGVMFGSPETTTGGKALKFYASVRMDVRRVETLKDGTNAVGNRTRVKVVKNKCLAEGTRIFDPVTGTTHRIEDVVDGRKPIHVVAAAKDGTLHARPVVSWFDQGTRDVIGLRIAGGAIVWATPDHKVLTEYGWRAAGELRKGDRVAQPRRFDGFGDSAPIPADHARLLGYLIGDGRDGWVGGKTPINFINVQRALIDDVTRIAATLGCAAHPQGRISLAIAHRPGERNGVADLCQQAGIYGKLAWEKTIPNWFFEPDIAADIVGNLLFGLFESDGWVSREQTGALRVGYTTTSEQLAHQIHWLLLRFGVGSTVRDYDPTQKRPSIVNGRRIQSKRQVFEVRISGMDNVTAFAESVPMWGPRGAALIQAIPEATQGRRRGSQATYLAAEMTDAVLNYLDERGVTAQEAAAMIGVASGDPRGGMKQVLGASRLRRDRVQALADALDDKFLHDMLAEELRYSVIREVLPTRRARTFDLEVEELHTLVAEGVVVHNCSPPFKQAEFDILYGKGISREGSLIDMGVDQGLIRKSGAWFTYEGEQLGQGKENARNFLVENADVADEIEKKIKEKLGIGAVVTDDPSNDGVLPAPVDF

[13] = non-specific 3'UTR reporter inhibition in Clone20-Shn3RL – cell-based, Renilla luciferase, cherry-picked, counter-screen for Shn3 inhibitor project, dose response (AID 624133); assay type: functional
[14] = reduction of Shn3 3'UTR-driven luciferase in osteoblasts – cell-based, Clone20 osteoblasts, firefly luciferase, cherry-picked, dose response (AID 624132); assay type: functional;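 further: firefly luciferase luminescence from reporter carrying the Shn3 3'UTR in osteoblasts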
[15] = loss of viability in HepG2 cells – cell-based, CellTiter-Glo, cherry-picked, cytotoxicity control for Shn3 inhibitor project, dose response (AID 624134); assay type: functional

Sequence of Glucose-6-phosphate 1-dehydrogenase (P11413 whole entry): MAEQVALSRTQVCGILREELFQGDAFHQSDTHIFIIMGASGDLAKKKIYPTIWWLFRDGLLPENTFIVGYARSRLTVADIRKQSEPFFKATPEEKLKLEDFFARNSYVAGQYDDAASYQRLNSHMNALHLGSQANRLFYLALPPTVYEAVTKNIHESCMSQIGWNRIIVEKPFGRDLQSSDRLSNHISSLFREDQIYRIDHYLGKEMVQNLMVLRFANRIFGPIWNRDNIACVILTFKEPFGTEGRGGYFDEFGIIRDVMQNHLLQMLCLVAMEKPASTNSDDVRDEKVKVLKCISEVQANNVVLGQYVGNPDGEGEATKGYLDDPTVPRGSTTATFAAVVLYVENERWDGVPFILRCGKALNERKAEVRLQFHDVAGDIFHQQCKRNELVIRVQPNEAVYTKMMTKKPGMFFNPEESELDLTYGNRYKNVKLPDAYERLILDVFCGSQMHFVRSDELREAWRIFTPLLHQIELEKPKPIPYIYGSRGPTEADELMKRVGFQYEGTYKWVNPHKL
Sequence of Peroxisome proliferator-activated receptor gamma/Nuclear receptor coactivator 3 (P37231 whole entry): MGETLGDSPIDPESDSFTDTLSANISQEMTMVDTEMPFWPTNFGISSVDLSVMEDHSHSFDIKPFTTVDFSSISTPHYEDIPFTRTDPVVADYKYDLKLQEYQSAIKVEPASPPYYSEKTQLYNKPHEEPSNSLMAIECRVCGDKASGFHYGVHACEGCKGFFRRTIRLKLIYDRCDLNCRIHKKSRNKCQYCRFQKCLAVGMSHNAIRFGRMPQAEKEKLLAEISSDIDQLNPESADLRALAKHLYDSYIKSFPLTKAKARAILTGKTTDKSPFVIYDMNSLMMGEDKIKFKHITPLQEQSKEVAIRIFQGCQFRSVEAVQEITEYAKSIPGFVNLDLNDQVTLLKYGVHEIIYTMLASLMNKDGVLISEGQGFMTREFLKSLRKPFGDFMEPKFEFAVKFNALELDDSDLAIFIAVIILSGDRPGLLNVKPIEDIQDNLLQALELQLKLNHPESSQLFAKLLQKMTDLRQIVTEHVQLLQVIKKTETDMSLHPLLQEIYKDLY
Sequence of Peroxisome proliferator-activated receptor gamma/Nuclear receptor coactivator 3 (Q9Y6Q9 whole entry, further chain): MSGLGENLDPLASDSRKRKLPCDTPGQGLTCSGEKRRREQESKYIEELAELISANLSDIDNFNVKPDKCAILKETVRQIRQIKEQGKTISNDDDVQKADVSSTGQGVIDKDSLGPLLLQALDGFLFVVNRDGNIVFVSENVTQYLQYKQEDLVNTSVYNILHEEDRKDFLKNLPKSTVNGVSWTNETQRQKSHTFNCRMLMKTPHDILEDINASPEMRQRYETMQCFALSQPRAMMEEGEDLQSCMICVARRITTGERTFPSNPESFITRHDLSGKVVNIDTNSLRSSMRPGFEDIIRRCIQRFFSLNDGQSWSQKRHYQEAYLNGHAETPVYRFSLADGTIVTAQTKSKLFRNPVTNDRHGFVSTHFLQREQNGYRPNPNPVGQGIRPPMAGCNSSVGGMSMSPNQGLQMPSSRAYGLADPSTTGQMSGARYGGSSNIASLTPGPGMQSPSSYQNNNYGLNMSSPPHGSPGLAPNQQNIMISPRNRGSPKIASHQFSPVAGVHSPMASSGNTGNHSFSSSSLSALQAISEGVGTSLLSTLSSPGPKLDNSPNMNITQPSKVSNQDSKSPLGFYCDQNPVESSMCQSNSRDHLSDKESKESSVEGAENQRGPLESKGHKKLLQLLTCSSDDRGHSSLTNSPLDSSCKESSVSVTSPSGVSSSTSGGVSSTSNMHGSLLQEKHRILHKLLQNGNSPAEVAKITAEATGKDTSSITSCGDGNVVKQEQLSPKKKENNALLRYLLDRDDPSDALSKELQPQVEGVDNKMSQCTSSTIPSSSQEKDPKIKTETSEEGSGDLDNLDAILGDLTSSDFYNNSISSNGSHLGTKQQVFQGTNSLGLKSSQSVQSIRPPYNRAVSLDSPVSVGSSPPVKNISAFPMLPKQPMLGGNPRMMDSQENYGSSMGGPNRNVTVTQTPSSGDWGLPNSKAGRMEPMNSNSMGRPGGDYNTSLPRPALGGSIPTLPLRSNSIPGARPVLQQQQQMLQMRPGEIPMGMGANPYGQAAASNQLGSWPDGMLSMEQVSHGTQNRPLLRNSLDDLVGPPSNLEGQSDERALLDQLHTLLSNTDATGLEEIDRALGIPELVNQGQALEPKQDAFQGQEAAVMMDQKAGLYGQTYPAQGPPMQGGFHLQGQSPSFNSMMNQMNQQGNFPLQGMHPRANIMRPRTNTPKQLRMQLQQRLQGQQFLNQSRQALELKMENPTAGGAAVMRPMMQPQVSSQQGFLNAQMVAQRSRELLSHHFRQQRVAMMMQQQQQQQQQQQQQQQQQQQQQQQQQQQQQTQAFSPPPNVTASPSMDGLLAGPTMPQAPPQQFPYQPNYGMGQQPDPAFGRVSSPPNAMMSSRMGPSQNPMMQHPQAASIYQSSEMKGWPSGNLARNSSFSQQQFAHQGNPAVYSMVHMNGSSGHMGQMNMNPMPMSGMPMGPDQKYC
Sequence of Peroxisome proliferator-activated receptor gamma/Nuclear receptor coactivator 2 (P37231 whole entry): as the sequence (P37231 whole entry) above
Sequence of Peroxisome proliferator-activated receptor gamma/Nuclear receptor coactivator 2 (Q15596 whole entry, further chain): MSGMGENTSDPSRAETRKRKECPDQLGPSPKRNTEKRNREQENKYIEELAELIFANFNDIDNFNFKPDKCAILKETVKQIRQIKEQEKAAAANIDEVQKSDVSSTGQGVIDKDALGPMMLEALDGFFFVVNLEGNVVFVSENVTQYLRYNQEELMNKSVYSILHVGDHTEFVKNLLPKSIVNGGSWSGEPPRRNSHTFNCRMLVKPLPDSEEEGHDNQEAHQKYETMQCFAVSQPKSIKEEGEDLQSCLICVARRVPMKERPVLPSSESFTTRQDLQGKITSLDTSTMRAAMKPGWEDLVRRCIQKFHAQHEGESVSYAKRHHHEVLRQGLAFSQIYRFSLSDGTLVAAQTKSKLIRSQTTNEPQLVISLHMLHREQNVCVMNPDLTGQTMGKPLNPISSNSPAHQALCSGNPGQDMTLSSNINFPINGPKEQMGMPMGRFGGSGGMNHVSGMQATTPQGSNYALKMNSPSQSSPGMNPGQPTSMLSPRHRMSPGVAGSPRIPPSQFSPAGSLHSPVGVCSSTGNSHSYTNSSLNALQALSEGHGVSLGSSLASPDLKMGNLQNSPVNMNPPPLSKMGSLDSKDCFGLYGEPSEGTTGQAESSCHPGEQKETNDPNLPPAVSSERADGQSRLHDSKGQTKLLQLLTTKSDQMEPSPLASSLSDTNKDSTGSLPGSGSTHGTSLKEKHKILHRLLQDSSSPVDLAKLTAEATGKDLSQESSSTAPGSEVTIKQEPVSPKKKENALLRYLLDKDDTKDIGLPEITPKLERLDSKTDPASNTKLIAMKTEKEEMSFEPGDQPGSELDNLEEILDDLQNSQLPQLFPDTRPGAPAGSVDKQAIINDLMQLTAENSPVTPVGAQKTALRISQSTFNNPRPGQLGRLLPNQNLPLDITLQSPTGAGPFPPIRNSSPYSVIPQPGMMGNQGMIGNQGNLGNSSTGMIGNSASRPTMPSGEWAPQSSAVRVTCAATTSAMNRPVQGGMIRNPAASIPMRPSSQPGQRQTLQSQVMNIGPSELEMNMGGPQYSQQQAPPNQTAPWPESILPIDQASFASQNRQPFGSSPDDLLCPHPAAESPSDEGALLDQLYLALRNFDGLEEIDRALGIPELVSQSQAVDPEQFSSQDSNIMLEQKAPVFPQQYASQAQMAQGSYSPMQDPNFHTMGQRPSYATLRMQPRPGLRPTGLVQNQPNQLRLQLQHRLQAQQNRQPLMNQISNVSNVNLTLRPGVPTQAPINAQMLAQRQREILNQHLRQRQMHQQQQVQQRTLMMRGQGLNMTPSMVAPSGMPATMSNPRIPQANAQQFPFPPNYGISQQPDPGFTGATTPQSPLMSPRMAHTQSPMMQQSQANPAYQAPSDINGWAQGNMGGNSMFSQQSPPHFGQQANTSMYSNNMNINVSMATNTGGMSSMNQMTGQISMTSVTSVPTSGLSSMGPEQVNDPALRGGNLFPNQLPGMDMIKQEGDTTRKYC
Sequence of FAD-linked sulfhydryl oxidase ALR (P55789 whole entry): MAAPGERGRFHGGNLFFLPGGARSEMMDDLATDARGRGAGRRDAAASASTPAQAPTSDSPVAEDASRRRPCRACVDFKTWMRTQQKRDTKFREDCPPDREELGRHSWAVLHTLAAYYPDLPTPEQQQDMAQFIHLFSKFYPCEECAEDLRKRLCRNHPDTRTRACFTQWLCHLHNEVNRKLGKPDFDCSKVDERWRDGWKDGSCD

Question: For `COc1cc(/N=C/c2c(CO)cnc(C)c2O)cc(OC)c1OC`, which AC50 [1] is on record?
Answer: 3.63 µM (active)

Question: What about the IC50 [2] of the same compound?
Answer: > 80 µM (inactive)

Question: With `c1ccc2c(Nc3nc(-c4ccncc4)nc4ccccc34)cccc2c1` as the compound, how does the AC50 [3] read?
Answer: 34 µM (active)

Question: What about the AC50 [4] of the same compound?
Answer: 18.7 µM (active)

Question: And the EC50 [5]?
Answer: > 195 µM (not active)

Question: With `CCSc1cnn(-c2ccccc2)c(=O)c1SCC` as the compound, how does the EC50 [6] read?
Answer: 54.2 µM (inactive)

Question: And the EC50 [7]?
Answer: > 79.4 µM (not active)

Question: And the EC50 [8]?
Answer: 7.53 µM (active)

Question: For `CC(C)(C)c1ccc(Cn2nnc3c(O)nc(C4CCN(C(=O)Cc5cccs5)CC4)nc32)cc1`, which EC50 [9] is on record?
Answer: > 59.7 µM (inactive)

Question: And the EC50 [10]?
Answer: > 59.7 µM (inactive)

Question: What does the source list for `Sc1nnc(-c2cc(-c3ccco3)[nH]n2)n1-c1ccccc1`?
Answer: EC50 [6]: > 79.4 µM (inactive); EC50 [7]: > 79.4 µM (not active); EC50 [8]: > 79.4 µM (not active)

Question: What does the source list for `O=C(NCc1ccccc1)c1nc(S(=O)(=O)Cc2ccccc2)ncc1Cl`?
Answer: AC50 [11]: 2.72 µM (active); EC50 [9]: > 59.6 µM (inactive); EC50 [12]: 4.88 µM (active); AC50 [13]: 10.8 µM (active); AC50 [14]: 1.19 µM (active); AC50 [15]: 20.4 µM (active); EC50 [10]: > 2.21 µM (active)

Question: With `COC(=O)c1sccc1NS(=O)(=O)c1ccc(OC)cc1` as the compound, how does the AC50 [3] read?
Answer: 28.2 µM (active)

Question: What about the AC50 [4] of the same compound?
Answer: 21.4 µM (active)

Question: What does the source list for `NC(=O)C1=CC2C3C=CC2(O)C(=O)OC3O1` (stereo not given)?
Answer: EC50 [9]: > 59.7 µM (inactive); EC50 [10]: > 59.7 µM (inactive)

Question: Which IC50 [2] does the source give for `COCCNC(=S)Nc1ccc(N2CCOCC2)c(S(=O)(=O)Nc2ccc(Cl)cc2)c1` here?
Answer: > 80 µM (inactive)
